Data from PMC4640066 (Nature Communications, 2015).

How the values were obtained:
[1] = test system: HeLa cells expressing EB3-EGFP (interphase); test: EB3-EGFP signal tracking, interphase cells; format: cell-based, human; settings: 15 min; for Track length / Track lifetime / Velocity: interphase HeLa EB3-EGFP, mean±s.d.; for Track numbers: interphase, from a 144-μm^2 area inside the cell
Experimental: A HeLa ‘Kyoto' cell line stably expressing EB3-EGFP (a kind gift from Dr J. Ellenberg) was maintained in DMEM+GlutaMAX (Gibco) supplemented with 10% FBS, 2 mM L-glutamine, 100 U ml^−1 penicillin, 100 μg ml^−1 streptomycin, 1 mM sodium pyruvate and 0.5 mg ml^−1 G418. Cells were seeded into eight-well Lab-Tek chambers (Nunc, Rochester, NY) for 24-h prior imaging. For imaging, the medium was exchanged to Live Cell Imaging Solution (Molecular Probes Life Technologies) supplemented as described above and containing various concentrations of AG1 or gatastatin. Interphase cells were incubated with drugs for 15 min and mitotic cells were treated as described in Fig. 4c. Then, EB3 tracks were observed under a PerkinElmer UltraVIEW ERS Spinning Disk microscope (Software: UltraVIEW ERS Imaging Suite) equipped with a Plan-APOCHROMAT × 100/1.4 Oil DIC objective, a Confocal Scanner Unit (Yokogawa CSU 22), a Hamamatsu EM CCD camera (C9100-50) and a 488-nm Argon laser at 37 °C, and time-lapse sequences were performed for 60 s with a 400-ms interval. Automatic analysis of EB3-EGFP signal tracks was performed with ImageJ (http://imagej.nih.gov/ij/) and Matlab (Mathworks) as described.

human γ-tubulin [2] = molecular target: T1, human γ-tubulin (Homo sapiens, UniProt P23258); test: Inhibition of GTP binding of γ-tubulin (α-[32P]-GTP crosslinking assay); settings: 60 μM compound; 70 nM γ-tubulin, 100 nM α-[32P]-GTP; mean±s.d.
T1 construct: myc (C); 6His (C); made in house; host or cells: Sf21 insect cells (baculovirus)
T1 sequence (P23258 whole entry): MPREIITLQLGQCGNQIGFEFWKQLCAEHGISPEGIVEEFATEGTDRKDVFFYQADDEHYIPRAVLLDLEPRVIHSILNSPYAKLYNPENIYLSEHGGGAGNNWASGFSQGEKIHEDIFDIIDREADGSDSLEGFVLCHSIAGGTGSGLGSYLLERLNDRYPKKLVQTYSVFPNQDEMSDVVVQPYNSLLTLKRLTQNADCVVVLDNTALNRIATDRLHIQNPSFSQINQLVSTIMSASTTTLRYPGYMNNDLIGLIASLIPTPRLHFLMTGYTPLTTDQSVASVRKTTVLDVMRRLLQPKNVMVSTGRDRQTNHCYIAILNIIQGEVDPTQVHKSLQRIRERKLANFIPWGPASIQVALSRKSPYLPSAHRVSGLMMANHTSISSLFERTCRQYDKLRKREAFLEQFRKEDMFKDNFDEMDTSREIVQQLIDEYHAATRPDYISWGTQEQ
Experimental: For analysis of the effect of drugs on GTP binding of γ-tubulin, 70 nM of purified human γ-tubulin in GTP-binding buffer (50 mM MES, 5 mM MgCl2, 1 mM EGTA, pH 6.6) was incubated with or without compounds for 15 min at 20 °C. A final concentration of 100 nM of α-[^32P]-GTP was added and incubated at 20 °C for 30 min. After incubation, bound α-[^32P]-GTP was crosslinked to γ-tubulin for 60 s by illumination with a ultraviolet lamp using CL-1000 Ultraviolet Crosslinker. Protein with the crosslinked GTP was separated from unbound nucleotide by TCA precipitation and SDS–PAGE, and ^32P labelling was measured using a Typhoon FLA-7000 (General Electronic Company). Band intensities were quantified with the ImageJ software.

[3] = test system: DMSO-stimulated, γ-tubulin-independent aster formation; test: DMSO-stimulated aster formation in M-phase Xenopus egg extracts; format: biochemical; settings: M-phase-arrested Xenopus egg extracts, 5% DMSO, 20 min at 20 °C
Experimental: (§1) Cytostatic factor (CSF)-arrested M phase Xenopus egg extracts (CSF extracts) were prepared. Briefly, unfertilized eggs were crushed by 10,700g centrifugation for 20 min. M phase extracts were mixed with 0.5 μM Cy3-labelled α/β-tubulin and various concentrations of compounds. After incubation for 30 min on ice, 15 μM RanQ69L, 200 sperm nuclei per μl or 5% DMSO were added and incubated for 30 min on ice. After incubation for 20 min at 20 °C (for the samples with sperm nuclei, the incubation time was 30 min), 1.5 μl sample was fixed with 1.5 μl fix solution (0.3 volume of 37% formaldehyde, 0.6 volume of 80% glycerol and 0.1 vol of 10 × MMR solution (50 mM HEPES, pH 7.8, 1 M NaCl, 20 mM KCl, 10 mM MgCl2, 20 mM CaCl2 and 1 mM EDTA)), followed by the squash fix.
(§2) Images were acquired using a microscope (Axiovert 200 M; Carl Zeiss Inc.) equipped with a plan-Apochromat × 63 NA 1.3 oil objective lens (Carl Zeiss Inc.), a Cy3 emission filter and a Cascade:1 K (Photometrics Inc.) camera, and the AxioVision software (Carl Zeiss Inc.). The aster size and fluorescence intensity were quantified using a macro written in MATLAB[41].

α/β-tubulin = molecular target: T2, α/β-tubulin (Sus scrofa, UniProt P02550+P02554); test: Tryptophan-based drug-binding assay, α/β-tubulin; set-up: species or system porcine; settings: tryptophan fluorescence decrease; 1 μM protein; mean±s.d., three independent experiments
T2 construct: α/β-Tubulin was purified from porcine brain; from tissue; host or cells: porcine brain
T2 sequence (P02554 whole entry): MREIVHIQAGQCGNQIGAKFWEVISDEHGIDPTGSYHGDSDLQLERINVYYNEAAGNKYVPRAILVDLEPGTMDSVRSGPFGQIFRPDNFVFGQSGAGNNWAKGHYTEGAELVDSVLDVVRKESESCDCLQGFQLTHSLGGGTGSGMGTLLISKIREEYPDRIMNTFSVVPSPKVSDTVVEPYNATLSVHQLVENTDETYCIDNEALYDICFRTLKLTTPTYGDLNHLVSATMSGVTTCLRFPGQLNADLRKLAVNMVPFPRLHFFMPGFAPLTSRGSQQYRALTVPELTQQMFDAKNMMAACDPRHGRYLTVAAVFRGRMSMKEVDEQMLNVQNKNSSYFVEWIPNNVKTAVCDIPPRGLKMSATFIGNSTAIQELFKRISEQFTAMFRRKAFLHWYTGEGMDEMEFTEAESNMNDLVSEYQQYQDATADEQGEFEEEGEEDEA
T2 sequence (P02550 whole entry): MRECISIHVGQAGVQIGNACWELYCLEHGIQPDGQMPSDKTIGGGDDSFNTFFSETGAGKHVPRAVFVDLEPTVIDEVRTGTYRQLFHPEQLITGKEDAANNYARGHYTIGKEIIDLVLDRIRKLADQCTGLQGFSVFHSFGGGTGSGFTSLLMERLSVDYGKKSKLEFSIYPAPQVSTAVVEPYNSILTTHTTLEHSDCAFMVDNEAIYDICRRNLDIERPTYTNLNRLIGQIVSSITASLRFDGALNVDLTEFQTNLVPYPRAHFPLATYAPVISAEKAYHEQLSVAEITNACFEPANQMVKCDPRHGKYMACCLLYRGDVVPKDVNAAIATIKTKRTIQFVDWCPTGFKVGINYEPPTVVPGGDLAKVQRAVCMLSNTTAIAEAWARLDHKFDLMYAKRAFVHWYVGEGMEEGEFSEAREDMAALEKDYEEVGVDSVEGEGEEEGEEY
Experimental: γ-TuSC was purified as described. Briefly, γ-TuSC was expressed in HighFive cells and purified by sequential steps of Ni-NTA (Macherei-Nagel) purification, MonoQ column purification (GE Healthcare) and size exclusion (Superdex 200 column, GE Healthcare)[14]. α/β-Tubulin was purified from porcine brain through four cycles of polymerization and depolymerization using 1 M PIPES buffer (1 M PIPES-KOH, 1 mM EGTA, 1 mM MgCl2, pH 6.8) for effective removal of MT-associated proteins.
(§3) Gel filtration buffer for γ-tubulin purification (50 mM MES pH 6.6, 500 mM KCl, 5 mM MgCl2, 1 mM EGTA and 1 mM DTT) supplemented with 10% of glycerol was used as an assay buffer. γ-tubulin and α/β-tubulin were diluted in this assay buffer to reach a final protein concentration of 1 μM. A final concentration of 10 μM or 1 mM GTP was added to the samples. Proteins were incubated for 30 min with compounds (final DMSO concentration was 1%; 2% for AG1 and gatastatin). […] Dissociation constants were calculated from fitting curves of decreasing fluorescence (ΔFL) using the GraphPad Prizm software.

human γ-tubulin [4] = molecular target: T1, human γ-tubulin; test: Tryptophan-based drug-binding assay, γ-tubulin; settings: for Ratio of Kd[α/β-tubulin]/Kd[γ-tubulin]: selectivity for γ-tubulin over α/β-tubulin; for Kd: tryptophan fluorescence decrease, 1 μM protein, mean±s.d., three independent experiments
Experimental: In brief, 0.7 × 10^6 cells ml^−1 were infected with the γ-tubulin baculovirus. After 48 h, cells were collected by centrifugation at […] for 10 min and flash-frozen in liquid nitrogen and stored at −80 °C. Purification was carried out as described with slight modifications. […] Imidazole (final 10 mM) was added and the lysate was centrifuged again at 192,800g for 30 min at 4 °C. […] Ni-NTA Agarose was then washed twice with wash buffer 1 (lysis buffer containing 25 mM imidazole) and wash buffer 2 (50 mM MES pH 6.6, 500 mM KCl, 5 mM MgCl2, 10% glycerol, 10 μM GTP and 1 mM DTT) containing 25 mM imidazole. γ-Tubulin was eluted with wash buffer 2 containing 200 mM imidazole.
Monomeric γ-tubulin was prepared using a size exclusion column HiLoad 16/60 Superdex 200 pre-equilibrated with gel filtration buffer (50 mM MES pH 6.6, 500 mM KCl, 5 mM MgCl2, 1 mM EGTA, 10 μM GTP and 1 mM DTT). The peak fractions representing monomeric γ-tubulin were identified by A280 and confirmed using SDS–PAGE. Protein was concentrated using a Vivaspin concentrator (Sartorius) and supplemented with 10% glycerol, following snap-freezing in liquid nitrogen and storage at −80 °C.
as §3

HeLa cells = test: Analysis of interphase MT network; format: cell-based, human; settings: 30 μM, 2.5 h
Experimental: HeLa cells were cultured in DMEM containing 10% FBS in a humidified atmosphere containing 5% CO2. After treatment with each compound for 2.5 h (interphase MT network) or 5 h (mitotic spindle), the cells were immediately fixed with cold MeOH (−20 °C). After blocking with PBS containing 0.5% bovine serum albumin, cells were incubated with anti-α-tubulin antibodies (1:500 dilution, Santa Cruz, Cat# sc-32293) to observe interphase cells, or with anti-BubR1 (1:250 dilution, BD Bioscience, Cat# 612502) and anti-α-tubulin (1:250 dilution, MBL, Cat# PM054) antibodies to observe mitotic spindle. After staining with Alexa^488-conjugated anti-mouse IgG (1:2,000 dilution, Invitrogen, Cat#A11001) and Alexa568-conjugated anti-rabbit IgG (1:2000 dilution, Invitrogen, Cat#A11011), cells were washed four times with PBS and mounted with PBS containing 0.1 μg ml^−1 DAPI. MTs and BubR1 signals were observed under a Leica LAS AF 6000 fluorescence microscope (Leica Microsystems) or an LSM 700 laser-scanning confocal microscope (Zeiss).

[5] = test system: γ-tubulin-dependent, RanQ69L-stimulated aster formation; test: RanQ69L-stimulated aster formation in M-phase Xenopus egg extracts; format: biochemical
Experimental: as §1, §2

human γ-tubulin [6] = molecular target: T1, human γ-tubulin; test: GTP binding to recombinant γ-tubulin (UV crosslinking); settings: 70 nM γ-tubulin, α-[32P]-GTP
Experimental: Supplementary Figure 2. Binding of GTP and GCP4 to recombinant human γ-tubulin
(a) GTP binding to γ-tubulin. 70 nM of γ-tubulin was mixed with indicated concentrations of α-[32P]-GTP, and cross-linked by UV irradiation. After separation of crosslinked γ-tubulin and unbound α-[32P]-GTP, radioactivity was detected with a phosphorimager. Band intensities were quantified with ImageJ. The Kd (121.1 nM) was calculated using GraphPad Prizm software. (b) Purified human γ-tubulin and GCP4 interaction was detected by gel filtration and SDS-PAGE. Equal volumes of γ-tubulin (1.5 µM) and GCP4 (4 µM), γ-tubulin (1.5 µM) and buffer, or GCP4 (4 µM) and buffer were mixed and incubated for 30 min at 20 °C. Proteins were separated by size exclusion column Superdex 200 10/300 GL pre-equilibrated with gel filtration buffer (50 mM MES pH6.6, 500 mM KCl, 5 mM MgSO4, 1 mM EGTA, 1 mM DTT, 10 µM GTP).
γ-Tubulin alone and GCP4 alone were eluted at retention times of 27 min and 24 min, respectively. The […]
GCP4 and γ-tubulin in these fractions were confirmed by SDS-PAGE and silver staining.
(1 picture or pasted object on this page, not shown here)

What does the source list for `COc1cc2occ(-c3cc(OC)c4c(c3OC)OCO4)c(=O)c2cc1OC` [AG1, glaziovianin A, reference compound]?
Track length ([1]; 1 μM): 0.73±0.09 μm; Track lifetime ([1]; 1 μM): 3.30 ± 0.57 s; Velocity ([1]; 1 μM): 9.59±1.01 μm min^−1; Track numbers ([1]; 1 μM): 106±30; Track length ([1]; 3 μM): 0.43±0.07 μm; Track lifetime ([1]; 3 μM): 2.20 ± 0.67 s; Velocity ([1]; 3 μM): 7.33±1.23 μm min^−1; Track numbers ([1]; 3 μM): 110±42; GTP binding (control %) (human γ-tubulin [2]): 93.7±11.7%; IC50 [3]: 1.37 µM; Kd (α/β-tubulin): 51.9 ± 36.4 µM; Ratio of Kd[α/β-tubulin]/Kd[γ-tubulin] (human γ-tubulin [4]): 0.61; Kd (human γ-tubulin [4]): 85.3 ± 22.8 µM; Effect on interphase MT network (HeLa cells): caused partial depolymerization of interphase MT network; IC50 ([5]; M-phase-arrested Xenopus egg extracts, 15 μM RanQ69L, 20 min at 20 °C): 0.44 µM; IC50[DMSO-aster]/IC50[RanQ69L-aster] ([5]; ratio of IC50 values): 3.14

With `Nc1nc2c(ncn2[C@@H]2O[C@H](COP(=O)(O)OP(=O)(O)OP(=O)(O)O)[C@@H](O)[C@H]2O)c(=O)[nH]1` [GTP] as the compound, how does the Kd (human γ-tubulin [6]) read?
The Kd was 0.121 µM.

Which results are given for `COc1ccc(/C=c2\[nH]c(=O)/c(=C/c3cccc(C(=O)c4ccccc4)c3)[nH]c2=O)cc1` [KPU-406]?
Kd (α/β-tubulin): 26.3 ± 2 µM; Ratio of Kd[α/β-tubulin]/Kd[γ-tubulin] (human γ-tubulin [4]): 0.57; Kd (human γ-tubulin [4]): 46.1 ± 27.6 µM

How did the Kd (α/β-tubulin) turn out when `COC(=O)Nc1nc2ccc(C(=O)c3cccs3)cc2[nH]1` [Nocodazole] was run?
Its Kd is 1.8 ± 0.6 µM.

What about the “Ratio of Kd[α/β-tubulin]/Kd[γ-tubulin]” value (human γ-tubulin [4]) of the same compound?
Its value is 0.03.

What about the Kd (human γ-tubulin [4]) of the same compound?
Its Kd is 54.9 ± 19 µM.

For `CC(C)(C)c1[nH]cnc1/C=c1\[nH]c(=O)/c(=C/c2ccccc2)[nH]c1=O` [Plinabulin], which Kd (α/β-tubulin) is on record?
The Kd was 0.5 ± 0.1 µM.

What about the “Ratio of Kd[α/β-tubulin]/Kd[γ-tubulin]” value (human γ-tubulin [4]) of the same compound?
The value was 0.01.

What about the “Ratio of Kd[α/β-tubulin]/Kd[γ-tubulin]” value (human γ-tubulin [4]; listed as plinabulin) of the same compound?
Its value is < 0.05.

And the Kd (human γ-tubulin [4])?
The Kd was 83.3 ± 18.5 µM.
